Results from ChEMBL document CHEMBL1201862, “PubChem BioAssay data set” (2004).
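Grown in 96-well plates, cells were treated for 48 hours with each compound at five concentrations. Insufficient inhibition: endpoint recorded as highest concentration tested. Here, GI50 denotes the concentration required for 50% inhibition of growth.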 Activity calls are given as the source filed them. No stated cut-off is given here; in the data, active = GI50 up to about 1.1 µM and inactive = higher.

Legend:
Test in all cases: NCI tumour cell line growth inhibition, 48 h
UO-31 = system: UO-31
ACHN = system: ACHN
COLO 205 = system: COLO 205
UACC-62 = system: UACC-62
UACC-257 = system: UACC-257
HL-60 = system: HL-60
NCI-H226 = system: NCI-H226
U-251 = system: U-251
HOP-62 = system: HOP-62
NCI-H522 = system: NCI-H522
HT-29 = system: HT-29
RXF 393 = system: RXF 393
CCRF-CEM = system: CCRF-CEM
SF-268 = system: SF-268
HCT-116 = system: HCT-116
SW-620 = system: SW-620
OVCAR-3 = system: OVCAR-3

SMILES | GI50 (UO-31) | GI50 (ACHN) | GI50 (COLO 205) | GI50 (UACC-62) | GI50 (UACC-257) | GI50 (HL-60) | GI50 (NCI-H226) | GI50 (U-251) | GI50 (HOP-62) | GI50 (NCI-H522) | GI50 (HT-29) | GI50 (RXF 393) | GI50 (CCRF-CEM) | GI50 (SF-268) | GI50 (HCT-116) | GI50 (SW-620) | GI50 (OVCAR-3)
COc1ccc(Cc2c3cc(O)c([O-])cc3cc[n+]2C)cc1 | 9.95 µM (inactive) | 6.93 µM (inactive) | 39.1 µM (inactive) | 23.9 µM (inactive) | 28.4 µM (inactive) | 16.3 µM (inactive) | 25.7 µM (inactive) | 12.7 µM (inactive) | 10.3 µM (inactive) | 23.3 µM (inactive) | 52.7 µM (inactive) | 11.8 µM (inactive) | 4.95 µM (inactive) | 13.5 µM (inactive) | 19.4 µM (inactive) | 36.1 µM (inactive) | 27.7 µM (inactive)
N#CCN1C(=O)c2cc([N+](=O)[O-])cc3cc([N+](=O)[O-])cc(c23)C1=O | 13.8 µM (inactive) | 13.2 µM (inactive) | 11.4 µM (inactive) | 12.4 µM (inactive) | 15.1 µM (inactive) | 3.21 µM (inactive) | 21.6 µM (inactive) | 17.9 µM (inactive) | 18.8 µM (inactive) | – | 16.8 µM (inactive) | 8.28 µM (inactive) | 2.77 µM (inactive) | 17 µM (inactive) | 7.18 µM (inactive) | 7.53 µM (inactive) | 13.4 µM (inactive)
O=C1c2c(c3c4ccccc4n(CC4CO4)c3c3[nH]c4ccccc4c23)C(=O)N1Cc1ccccc1 (centres undefined) | > 100 µM (inactive) | – | – | > 100 µM (inactive) | > 100 µM (inactive) | > 100 µM (inactive) | 48.6 µM (inactive) | > 100 µM (inactive) | > 100 µM (inactive) | 25.4 µM (inactive) | > 100 µM (inactive) | > 100 µM (inactive) | > 100 µM (inactive) | > 100 µM (inactive) | > 100 µM (inactive) | 77.6 µM (inactive) | > 100 µM (inactive)
N#CC(C#N)=CSc1ccccc1 | 13.3 µM (inactive) | 30.5 µM (inactive) | 24.5 µM (inactive) | 24.2 µM (inactive) | 46.2 µM (inactive) | 11.9 µM (inactive) | 19.5 µM (inactive) | 16.5 µM (inactive) | 55 µM (inactive) | 11.8 µM (inactive) | 28.6 µM (inactive) | 17.2 µM (inactive) | 1.52 µM (inactive) | 13.4 µM (inactive) | 23 µM (inactive) | 32.4 µM (inactive) | 34.4 µM (inactive)
CC1=CC=C2C(C)(C)CC[C@@H]3OC(=O)[C@H]1[C@]23C | > 100 µM (inactive) | > 100 µM (inactive) | > 100 µM (inactive) | > 100 µM (inactive) | > 100 µM (inactive) | > 100 µM (inactive) | > 100 µM (inactive) | > 100 µM (inactive) | > 100 µM (inactive) | > 100 µM (inactive) | > 100 µM (inactive) | > 100 µM (inactive) | > 100 µM (inactive) | > 100 µM (inactive) | > 100 µM (inactive) | > 100 µM (inactive) | > 100 µM (inactive)
Nc1nc2c(ncn2CC(CO)CC(c2ccccc2)P(=O)(O)O)c(=O)[nH]1 (centres undefined) | > 100 µM (inactive) | > 100 µM (inactive) | > 100 µM (inactive) | > 100 µM (inactive) | > 100 µM (inactive) | > 100 µM (inactive) | > 100 µM (inactive) | > 100 µM (inactive) | > 100 µM (inactive) | > 100 µM (inactive) | > 100 µM (inactive) | > 100 µM (inactive) | > 100 µM (inactive) | > 100 µM (inactive) | > 100 µM (inactive) | > 100 µM (inactive) | > 100 µM (inactive)
ClC/C=C/COC1CCCCO1 (centres undefined) | > 100 µM (inactive) | 60.5 µM (inactive) | 94.6 µM (inactive) | 84.1 µM (inactive) | 45.7 µM (inactive) | 20.6 µM (inactive) | > 100 µM (inactive) | 65.9 µM (inactive) | > 100 µM (inactive) | 2.12 µM (inactive) | > 100 µM (inactive) | > 100 µM (inactive) | 36.8 µM (inactive) | 63.7 µM (inactive) | > 100 µM (inactive) | > 100 µM (inactive) | > 100 µM (inactive)
O=C1C2C=CC(n3[nH]c(=O)n(Cc4ccccc4)c3=O)CC2C(=O)N1c1cccc(Cl)c1 (centres undefined) | > 100 µM (inactive) | > 100 µM (inactive) | > 100 µM (inactive) | > 100 µM (inactive) | > 100 µM (inactive) | > 100 µM (inactive) | > 100 µM (inactive) | > 100 µM (inactive) | > 100 µM (inactive) | > 100 µM (inactive) | > 100 µM (inactive) | > 100 µM (inactive) | > 100 µM (inactive) | > 100 µM (inactive) | > 100 µM (inactive) | > 100 µM (inactive) | > 100 µM (inactive)
Clc1ccccc1C1N2CCCCC2[C@@H]2c3[nH]c4ccccc4c3CCN12 (some centres undefined) | 19.5 µM (inactive) | 16.2 µM (inactive) | 19.3 µM (inactive) | 15 µM (inactive) | 18.7 µM (inactive) | 19.5 µM (inactive) | – | 17.7 µM (inactive) | 29.9 µM (inactive) | – | 17.1 µM (inactive) | 22 µM (inactive) | 19.1 µM (inactive) | 17.9 µM (inactive) | 18.5 µM (inactive) | 17.3 µM (inactive) | 16.2 µM (inactive)
NS(=O)(=O)c1ccc(NC2=CC(=O)C(=O)c3ccccc32)cc1 | > 100 µM (inactive) | > 100 µM (inactive) | > 100 µM (inactive) | > 100 µM (inactive) | > 100 µM (inactive) | > 100 µM (inactive) | > 100 µM (inactive) | > 100 µM (inactive) | > 100 µM (inactive) | > 100 µM (inactive) | > 100 µM (inactive) | > 100 µM (inactive) | > 100 µM (inactive) | > 100 µM (inactive) | 76.4 µM (inactive) | > 100 µM (inactive) | > 100 µM (inactive)
CCOC(=O)c1[nH]c(COC(C)=O)c(CCCOC(C)=O)c1CCCOC(C)=O | – | > 100 µM (inactive) | > 100 µM (inactive) | – | > 100 µM (inactive) | > 100 µM (inactive) | > 100 µM (inactive) | > 100 µM (inactive) | > 100 µM (inactive) | 23 µM (inactive) | > 100 µM (inactive) | > 100 µM (inactive) | > 100 µM (inactive) | > 100 µM (inactive) | > 100 µM (inactive) | > 100 µM (inactive) | > 100 µM (inactive)
O=c1c2ccccc2nc(-c2cccc(Cl)c2)n1NCC1(O)OCC(O)C(O)C1O (centres undefined) | > 100 µM (inactive) | > 100 µM (inactive) | > 100 µM (inactive) | > 100 µM (inactive) | > 100 µM (inactive) | 30.7 µM (inactive) | > 100 µM (inactive) | > 100 µM (inactive) | – | 37.8 µM (inactive) | > 100 µM (inactive) | 51.9 µM (inactive) | 41.7 µM (inactive) | > 100 µM (inactive) | > 100 µM (inactive) | > 100 µM (inactive) | > 100 µM (inactive)
COc1ccc(/C=C/c2nnc(S)[nH]2)cc1OC | > 100 µM (inactive) | > 100 µM (inactive) | – | > 100 µM (inactive) | > 100 µM (inactive) | > 100 µM (inactive) | > 100 µM (inactive) | > 100 µM (inactive) | – | – | > 100 µM (inactive) | > 100 µM (inactive) | > 100 µM (inactive) | > 100 µM (inactive) | > 100 µM (inactive) | > 100 µM (inactive) | > 100 µM (inactive)
COC(=O)N/N=C(/CCC(=O)Nc1ccc(C)c(C)c1)CC(=O)C(C)(C)C | > 100 µM (inactive) | > 100 µM (inactive) | > 100 µM (inactive) | > 100 µM (inactive) | > 100 µM (inactive) | > 100 µM (inactive) | > 100 µM (inactive) | > 100 µM (inactive) | > 100 µM (inactive) | > 100 µM (inactive) | > 100 µM (inactive) | > 100 µM (inactive) | > 100 µM (inactive) | > 100 µM (inactive) | – | > 100 µM (inactive) | > 100 µM (inactive)
CCOC(=O)C1=C(C)N(c2ccc(C)cc2)C2=C(C(=O)N(c3ccccc3)C2c2ccccc2)C1c1ccccc1 (centres undefined) | 21 µM (inactive) | 16.6 µM (inactive) | > 25 µM (inactive) | 17.2 µM (inactive) | > 25 µM (inactive) | > 25 µM (inactive) | > 25 µM (inactive) | > 25 µM (inactive) | > 25 µM (inactive) | – | > 25 µM (inactive) | 0.558 µM (active) | 20.8 µM (inactive) | > 25 µM (inactive) | 17.6 µM (inactive) | > 25 µM (inactive) | > 25 µM (inactive)
N=C1NC(=O)N2CC12 (centres undefined) [IMEXON] | > 100 µM (inactive) | > 100 µM (inactive) | > 100 µM (inactive) | > 100 µM (inactive) | > 100 µM (inactive) | 30.5 µM (inactive) | > 100 µM (inactive) | > 100 µM (inactive) | > 100 µM (inactive) | > 100 µM (inactive) | > 100 µM (inactive) | > 100 µM (inactive) | 50.8 µM (inactive) | > 100 µM (inactive) | – | > 100 µM (inactive) | > 100 µM (inactive)
N#CC(C(=O)Nc1ccccc1)C1=C(Cl)C(=O)c2ccccc2C1=O (centres undefined) | 13.9 µM (inactive) | – | 17.5 µM (inactive) | 16.8 µM (inactive) | 2.05 µM (inactive) | 4.23 µM (inactive) | 17 µM (inactive) | 27.2 µM (inactive) | 17.9 µM (inactive) | 15.5 µM (inactive) | 26 µM (inactive) | 17.6 µM (inactive) | 7.59 µM (inactive) | 15.7 µM (inactive) | 14.2 µM (inactive) | 20.6 µM (inactive) | 15.6 µM (inactive)
